The source of these data is PubChem BioAssay (NCI).

“And” between values parts separate entries of the source, which are not always exact repeats. Equal values may be shown once.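 1) Cells in 96-well plates. 2) Compound, 48 h, 5 concentrations. 3) Linear interpolation between surrounding doses. 4) Unreached endpoint = highest concentration. GI50 is the concentration that inhibits growth by half. TGI marks complete inhibition of growth.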

Some test systems named below: ACHN renal; CCRF-CEM leukemia; HOP-92 NSCLC; LOX IMVI melanoma; M19-MEL melanoma; SK-MEL-2 melanoma; SR leukemia; SW-620 colon; UACC-62 melanoma; EKVX NSCLC.
Holding throughout (assay): DTP human tumour cell line panel, 48 h

In general, GI50 refers to the concentration that inhibits growth by half. By TGI is commonly meant the concentration giving total growth inhibition. Read a high TGI as lower sensitivity of the cells. In the case of `O=C(NC(Cc1ccccc1)C(=O)CCl)OCc1ccccc1` (stereo unspecified), the GI50 in the assay on ACHN renal was 3.72 µM; in the assay with CCRF-CEM leukemia, 2.34 µM; in the assay on LOX IMVI melanoma, 1.3 µM; with SK-MEL-2 melanoma it was 1.96 µM; in the assay on SR leukemia, 2.23 µM; with SW-620 colon it was 1.91 µM. Moreover, the GI50 with UACC-62 melanoma is 4.52 µM. For the same molecule, the TGI in the assay with ACHN renal is 13.3 µM and 21.8 µM; in the assay on CCRF-CEM leukemia, 13.8 µM and 11.6 µM; in the assay on HOP-92 NSCLC, 28.3 µM; with LOX IMVI melanoma, 3.12 µM and 7.49 µM; in the assay with M19-MEL melanoma it was 27.3 µM; in the assay on SK-MEL-2 melanoma it was 4.89 µM and 22 µM. The TGI is above 100 µM in the assay on SR leukemia; 5.23 µM and 15.8 µM in the assay with SW-620 colon; 17.7 µM and 21.2 µM in the assay with UACC-62 melanoma.
In the case of `O=c1sc(-c2nc3ccccc3[nH]2)c(/N=C/c2ccccc2)n1-c1ccccc1`, the TGI in the assay on ACHN renal, in the assay with CCRF-CEM leukemia, in the assay with EKVX NSCLC, with LOX IMVI melanoma, with M19-MEL melanoma and with SK-MEL-2 melanoma was above 100 µM in each case. Moreover, the TGI in the assay with SW-620 colon and in the assay on UACC-62 melanoma was above 100 µM each time.
Consider `C=C1CCC2(C(C)=O)COC1(C)O2` (stereo unspecified), for which the TGI in the assay on ACHN renal, with CCRF-CEM leukemia, in the assay on EKVX NSCLC, in the assay on LOX IMVI melanoma, in the assay with M19-MEL melanoma and in the assay on SW-620 colon was above 100 µM in each case. The concentration for total growth inhibition (TGI) in the assay with UACC-62 melanoma was above 100 µM.
For the molecule `COc1cc([C@@H]2c3cc4c(cc3[C@@H](NC(=O)c3ccc(OC(C)=O)cc3)C3COC(=O)[C@@H]32)OCO4)cc(OC)c1O` (stereo partly specified), the total growth inhibition concentration (TGI) was 3.16 µM in the assay with ACHN renal; above 100 µM in the assay with CCRF-CEM leukemia; 21.2 µM in the assay with EKVX NSCLC; 7.05 µM in the assay on HOP-92 NSCLC; 10.1 µM in the assay with LOX IMVI melanoma; 40.1 µM in the assay on M19-MEL melanoma. Also, the TGI in the assay on SK-MEL-2 melanoma amounted to 16.6 µM; in the assay with SW-620 colon it was 15 µM; in the assay with UACC-62 melanoma, 3.14 µM.
With `c1cnc2nc3n(c2c1)CSC3`, the concentration for total growth inhibition (TGI) in the assay with ACHN renal, with CCRF-CEM leukemia, in the assay on EKVX NSCLC, with HOP-92 NSCLC, in the assay on LOX IMVI melanoma and in the assay with M19-MEL melanoma was above 100 µM in each case. Moreover, the TGI in the assay on SK-MEL-2 melanoma, in the assay on SW-620 colon and in the assay on UACC-62 melanoma was above 100 µM throughout.
For the molecule `CC(O)c1ccc(C(O)/C(=N\NC(=O)c2ccncc2)c2nc3ccc([N+](=O)[O-])cc3[nH]c2=O)cc1` (stereo unspecified), the TGI with ACHN renal, in the assay on CCRF-CEM leukemia, in the assay with HOP-92 NSCLC, in the assay with LOX IMVI melanoma, with M19-MEL melanoma and with SR leukemia was above 100 µM each time. The total growth inhibition concentration (TGI) in the assay on SW-620 colon and with UACC-62 melanoma was above 100 µM in each case.
For `O=[P+](O)c1cccnc1`, the total growth inhibition concentration (TGI) in the assay on ACHN renal, with CCRF-CEM leukemia, with EKVX NSCLC, in the assay with HOP-92 NSCLC, with LOX IMVI melanoma and with M19-MEL melanoma was above 100 µM each time. Further, the concentration for total growth inhibition (TGI) in the assay with SR leukemia, in the assay with SW-620 colon and in the assay with UACC-62 melanoma was above 100 µM each time.
Turning to `O=C(O)c1ccccc1C1c2ccc(Cl)cc2Oc2cc(Cl)ccc21`, the TGI in the assay with ACHN renal, in the assay with CCRF-CEM leukemia, in the assay on EKVX NSCLC, in the assay on HOP-92 NSCLC, in the assay with LOX IMVI melanoma and in the assay with M19-MEL melanoma was above 100 µM throughout. Moreover, the TGI with SK-MEL-2 melanoma, with SW-620 colon and with UACC-62 melanoma was above 100 µM throughout.
For the molecule `Cc1cc(C)c(C2=NO[C@@H]3C(=O)N(c4ccc(Cc5ccc(N6C(=O)[C@H]7C(c8c(C)cc(C)cc8C)=NO[C@H]7C6=O)cc5)cc4)C(=O)[C@H]23)c(C)c1`, the concentration for total growth inhibition (TGI) in the assay with CCRF-CEM leukemia, in the assay with EKVX NSCLC, in the assay with HOP-92 NSCLC, in the assay on LOX IMVI melanoma, in the assay on M19-MEL melanoma and in the assay on SK-MEL-2 melanoma was above 100 µM in each case. The TGI with SW-620 colon and in the assay with UACC-62 melanoma was above 100 µM each time.
Turning to `C1C[S][Ge]2([S]CCS1)[S]CCSCC[S]2`, the GI50 in the assay with ACHN renal, in the assay on CCRF-CEM leukemia, in the assay with HOP-92 NSCLC, with M19-MEL melanoma, in the assay on SK-MEL-2 melanoma and in the assay with SR leukemia was above 100 µM throughout. In the assay on UACC-62 melanoma, the GI50 was above 100 µM. Besides, the total growth inhibition concentration (TGI) in the assay on ACHN renal, with CCRF-CEM leukemia, in the assay with HOP-92 NSCLC, with M19-MEL melanoma, in the assay with SK-MEL-2 melanoma and in the assay on SR leukemia was above 100 µM in each case. This molecule gave a TGI with UACC-62 melanoma above 100 µM.
In the case of `Cc1nc(-n2nc(-c3ccccc3)cc2-c2ccccc2)sc1C(/C=C/c1ccc([N+](=O)[O-])cc1)=N/NC(N)=S`, the TGI is above 100 µM in the assay with ACHN renal; 90.2 µM in the assay with CCRF-CEM leukemia; above 100 µM in the assay on EKVX NSCLC; above 100 µM in the assay on HOP-92 NSCLC; above 100 µM in the assay with M19-MEL melanoma; above 100 µM in the assay with SK-MEL-2 melanoma. In the assay on UACC-62 melanoma, this molecule registered a TGI above 100 µM.
For the molecule `CCOC(=O)Cn1c(=O)[nH]c(=O)c2[nH]cnc21`, the TGI in the assay on ACHN renal, in the assay with CCRF-CEM leukemia, in the assay with EKVX NSCLC, in the assay with LOX IMVI melanoma, in the assay on M19-MEL melanoma and in the assay on SK-MEL-2 melanoma was above 100 µM in each case. Besides, the TGI in the assay on SR leukemia, in the assay on SW-620 colon and in the assay with UACC-62 melanoma was above 100 µM each time.
`COc1cc(=O)oc(/C=C/CO)c1C`: the TGI with ACHN renal, in the assay with CCRF-CEM leukemia, with EKVX NSCLC, with HOP-92 NSCLC, in the assay on LOX IMVI melanoma and in the assay on M19-MEL melanoma was above 100 µM each time. Further, the TGI in the assay with SR leukemia, with SW-620 colon and in the assay with UACC-62 melanoma was above 100 µM each time.
Turning to `Cc1cc(N(CCC#N)CCC#N)ccc1CC1N=C(c2ccccc2)OC1=O` (stereo unspecified), the TGI with ACHN renal, in the assay on CCRF-CEM leukemia, in the assay on EKVX NSCLC, in the assay on HOP-92 NSCLC, with LOX IMVI melanoma and in the assay on M19-MEL melanoma was above 100 µM each time. In addition, the TGI with SK-MEL-2 melanoma, in the assay on SW-620 colon and in the assay on UACC-62 melanoma was above 100 µM each time.
